Assay results from paper PMC11124870, “Effect of Antioxidants in Medicinal Products on Intestinal Drug Transporters” (Pharmaceutics, 2024).
Like-named read-outs stand apart in the source and are kept apart here.

Legend:
P-gp = target: T1, P-gp (Homo sapiens, UniProt P08183); experiment: Vesicular transport assay, 3H-NMQ uptake in P-gp membrane vesicles; assay type: biochemical; settings: for % Uptake of 3H-NMQ P-gp: antioxidant 200 µM, uptake with DMSO set as 100%, mean ± SD, three replicates, membrane vesicles
T1 construct: purchased ThermoFisher Scientific GM0015; host or cells: Sf9 membrane vesicles
T1 sequence (P08183 whole entry): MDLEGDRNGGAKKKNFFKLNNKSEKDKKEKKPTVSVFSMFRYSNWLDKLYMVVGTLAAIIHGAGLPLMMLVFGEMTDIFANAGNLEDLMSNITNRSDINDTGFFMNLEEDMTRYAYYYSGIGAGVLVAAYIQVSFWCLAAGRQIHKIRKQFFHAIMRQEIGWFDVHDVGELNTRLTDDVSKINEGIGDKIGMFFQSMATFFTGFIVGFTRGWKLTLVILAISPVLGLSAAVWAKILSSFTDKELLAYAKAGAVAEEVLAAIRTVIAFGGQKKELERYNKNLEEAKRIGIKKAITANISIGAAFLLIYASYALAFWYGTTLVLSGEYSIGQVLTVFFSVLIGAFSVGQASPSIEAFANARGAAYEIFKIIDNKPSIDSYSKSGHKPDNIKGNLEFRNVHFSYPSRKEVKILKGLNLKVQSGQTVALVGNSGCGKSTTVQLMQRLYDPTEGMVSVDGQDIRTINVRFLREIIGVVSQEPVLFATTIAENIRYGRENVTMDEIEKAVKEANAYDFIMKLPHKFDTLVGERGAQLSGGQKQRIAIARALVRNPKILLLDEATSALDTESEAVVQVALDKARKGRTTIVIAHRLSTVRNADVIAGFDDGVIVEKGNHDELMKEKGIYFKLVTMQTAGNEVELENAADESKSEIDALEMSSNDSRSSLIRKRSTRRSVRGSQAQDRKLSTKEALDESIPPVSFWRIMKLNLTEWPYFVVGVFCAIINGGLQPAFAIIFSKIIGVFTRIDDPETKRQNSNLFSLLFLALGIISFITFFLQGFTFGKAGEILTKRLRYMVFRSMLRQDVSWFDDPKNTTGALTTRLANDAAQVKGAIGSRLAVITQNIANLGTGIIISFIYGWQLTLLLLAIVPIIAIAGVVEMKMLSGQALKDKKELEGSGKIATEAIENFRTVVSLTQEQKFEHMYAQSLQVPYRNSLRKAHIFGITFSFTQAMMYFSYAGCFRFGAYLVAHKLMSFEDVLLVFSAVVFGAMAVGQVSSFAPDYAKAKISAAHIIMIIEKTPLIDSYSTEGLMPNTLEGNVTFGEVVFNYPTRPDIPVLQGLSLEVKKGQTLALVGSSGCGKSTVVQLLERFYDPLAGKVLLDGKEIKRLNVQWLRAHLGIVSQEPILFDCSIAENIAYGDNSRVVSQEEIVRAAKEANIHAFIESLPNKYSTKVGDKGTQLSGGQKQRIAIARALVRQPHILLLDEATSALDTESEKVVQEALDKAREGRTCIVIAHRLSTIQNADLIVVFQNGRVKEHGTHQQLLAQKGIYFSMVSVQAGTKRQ
Procedure: (§1) The vesicular transport assay was performed using Spodoptera frugiperda 9 (Sf9) membrane vesicles overexpressing human P-gp or BCRP, as reported previously with minor modifications. In brief, Isoplate 96-well flat-bottom white plates were preincubated with HBSS containing 0.5 mg/mL BSA on an orbital shaker in a 37 °C incubator at 90 rpm for 60 min followed by washing with HBSS. The assay mixture (75 µL/well) contained a probe substrate and either vehicle control, a known inhibitor of P-gp or BCRP, or an antioxidant, in vesicle uptake buffer (50 mM MOPS-Tris, pH 7.0 + 70 mM KCl + 7.5 mM MgCl2) prewarmed to 37 °C. After addition of the assay mixture, 5 μL/well (5 μg/μL stock concentration of the vesicles) of vesicles overexpressing human P-gp or BCRP was added. Uptake assays were initiated by adding 20 μL of either 25 mM adenosine triphosphate (ATP) or 25 mM adenosine monophosphate (AMP) to a final concentration of 5 mM. Plates were incubated at 37 °C for 20 min with orbital shaking (90 rpm). After 20 min, the uptake was quenched by adding 150 μL of ice-cold wash buffer (40 mM MOPS-Tris, pH 7.0 + 70 mM KCl) to each well, and the mixture was transferred to a 96-well filtration plate. Vacuum was applied, and the vesicles were washed three times with wash buffer. Vesicles were then lysed with 100 µL of MicroScint-20.

BCRP = target: T2, BCRP (Homo sapiens, UniProt Q9UNQ0); experiment: Vesicular transport assay, 3H-CCK8 uptake in BCRP membrane vesicles; assay type: biochemical; parameters: purchased ThermoFisher Scientific GM0008; host or cells: Sf9 membrane vesicles; settings: for % Uptake of 3H-CCK8 BCRP: antioxidant 200 µM, uptake with DMSO set as 100%, mean ± SD, three replicates, membrane vesicles
T2 sequence (Q9UNQ0 1-655): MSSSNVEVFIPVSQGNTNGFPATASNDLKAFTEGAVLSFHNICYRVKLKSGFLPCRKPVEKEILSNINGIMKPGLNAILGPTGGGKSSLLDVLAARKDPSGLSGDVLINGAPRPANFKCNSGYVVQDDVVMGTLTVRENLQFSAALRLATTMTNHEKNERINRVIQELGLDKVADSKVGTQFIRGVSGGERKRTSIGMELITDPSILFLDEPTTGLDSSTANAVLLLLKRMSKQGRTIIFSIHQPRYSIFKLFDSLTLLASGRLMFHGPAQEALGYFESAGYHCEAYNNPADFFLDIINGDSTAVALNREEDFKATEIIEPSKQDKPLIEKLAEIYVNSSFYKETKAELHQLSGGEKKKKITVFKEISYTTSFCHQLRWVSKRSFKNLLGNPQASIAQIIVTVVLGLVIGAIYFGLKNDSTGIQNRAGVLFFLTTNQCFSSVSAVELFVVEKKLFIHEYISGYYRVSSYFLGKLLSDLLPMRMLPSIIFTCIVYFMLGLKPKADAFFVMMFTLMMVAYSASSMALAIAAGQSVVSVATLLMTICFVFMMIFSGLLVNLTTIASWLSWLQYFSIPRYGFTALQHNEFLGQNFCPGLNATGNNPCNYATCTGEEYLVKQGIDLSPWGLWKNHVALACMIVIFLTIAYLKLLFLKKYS
Procedure: as §1

OATP2B1 = target: T3, OATP2B1 (Homo sapiens, UniProt O94956); experiment: Uptake transporter assay, 3H-estrone sulfate uptake in HEK-293-OATP2B1 cells
T3 sequence (O94956 1-709): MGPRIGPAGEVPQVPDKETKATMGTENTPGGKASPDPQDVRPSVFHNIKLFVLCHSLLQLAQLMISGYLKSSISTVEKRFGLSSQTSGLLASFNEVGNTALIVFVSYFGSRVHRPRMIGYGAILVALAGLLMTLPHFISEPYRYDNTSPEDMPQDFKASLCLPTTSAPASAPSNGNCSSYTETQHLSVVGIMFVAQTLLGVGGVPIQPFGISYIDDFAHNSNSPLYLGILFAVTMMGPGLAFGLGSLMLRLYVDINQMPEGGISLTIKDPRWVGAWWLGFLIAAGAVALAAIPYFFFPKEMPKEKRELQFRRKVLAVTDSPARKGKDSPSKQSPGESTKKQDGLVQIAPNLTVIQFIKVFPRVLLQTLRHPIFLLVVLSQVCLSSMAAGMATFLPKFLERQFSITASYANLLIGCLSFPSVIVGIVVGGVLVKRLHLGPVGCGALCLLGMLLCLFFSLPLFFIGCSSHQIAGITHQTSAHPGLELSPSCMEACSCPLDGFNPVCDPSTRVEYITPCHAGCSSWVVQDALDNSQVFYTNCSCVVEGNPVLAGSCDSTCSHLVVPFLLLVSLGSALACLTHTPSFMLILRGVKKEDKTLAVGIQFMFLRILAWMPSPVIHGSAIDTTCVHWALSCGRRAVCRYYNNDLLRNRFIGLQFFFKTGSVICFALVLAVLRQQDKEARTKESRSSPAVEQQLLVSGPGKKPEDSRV
Procedure: The uptake transporter assay was performed as reported previously with minor modifications [15]. A day before the uptake assay, Isoplate 96-well plates were coated with poly-D-lysine in PBS with calcium and magnesium and washed with PBS. […] An assay mixture of ^3H-estrone sulfate, a known inhibitor of OATP2B1, or an antioxidant was prepared and incubated in a 37 °C incubator for 10 min. The cells were washed with ice-cold HBSS three times and incubated with MicroScint fluid on a shaker for 1 h for cell lysis. Radioactivity was measured by liquid scintillation counting with a MicroBeta^2® microplate counter. […] On the day of experiment, cells were washed twice with 0.4 mL of HBSS per well and then pre-incubated for 10–20 min in 0.4 mL of HBSS. […] Uptake of ^3H-valsartan was stopped after 15 min by washing three times with ice-cold HBSS. Cells were lysed in 750 µL of lysis buffer (0.1 N NaOH and 0.1% SDS in double-distilled water) per well while shaking for 60 min. A total of 690 µL of the lysate from each well was then added to 2.5 mL of EcoLite scintillation fluid. The radioactivity was determined on a LS6500 Scintillation Counter (Beckman Coulter). Protein concentration was measured with a Pierce™ BCA protein assay kit. The radioactivity in each well was corrected for protein concentration. All values were determined in triplicate, and the final values are expressed as % uptake relative to negative control (1% DMSO).
Antioxidants were screened at a concentration of 200 μM.

[1] = Table S1; source not stated; cited from earlier work
OATP2B1, P-gp, and BCRP = settings: cited from earlier work
[2] = antioxidant 200 µM, uptake with DMSO set as 100%, mean ± SD, three replicates, HEK-293-OATP2B1 cells

| Compound | % Uptake of 3H-NMQ P-gp (P-gp) [%] | % Uptake of 3H-CCK8 BCRP (BCRP) [%] | inhibition at 20 min, 200 µM (P-gp; human, Sf9 membrane vesicles overexpressing human P-gp, pH 7, probe 3H-NMQ, 200 µM, 3H-NMQ) [%] | % Uptake of 3H-ES OATP2B1 (OATP2B1; [2]) [%] | LogP [1] | Uptake of 3H-CCK8 in BCRP membrane vesicles (assay validation) (BCRP; BSP 200 µM with 5 mM ATP, 37 °C, 20 min) | Uptake of 3H-ES in HEK-293 cells expressing OATP2B1 (assay validation) (OATP2B1; erlotinib 20 µM, 37 °C, 10 min) | Inhibition of intestinal transporters, previous assessment (OATP2B1, P-gp, and BCRP) | % Uptake of 3H-ES OATP2B1 (OATP2B1) [%] |
| --- | --- | --- | --- | --- | --- | --- | --- | --- | --- |
| O=C(O)CC(O)(CC(=O)O)C(=O)O [Anhydrous citric acid] | 92 ± 2.1 | 93.1 ± 6.7 | – | – | – | – | – | – | – |
| NCCCC[C@H](N)C(=O)O [Lysine] | 32.5 ± 44.3 | 109.0 ± 20.8 | ≥ 50 | 120.3 ± 21.4 | -3.05 | – | – | – | – |
| C/C=C/C=C/C(=O)[O-].[K+] [Potassium sorbate] | 103.5 ± 28.7 | 104.8 ± 14.5 | – | 98.8 ± 19.8 | – | – | – | – | – |
| O=C1OC(c2ccc(O)c(S(=O)(=O)O)c2)(c2ccc(O)c(S(=O)(=O)O)c2)c2c(Br)c(Br)c(Br)c(Br)c21 [Bromosulfophthalein, reference compound] | 0.0 ± 22 | 0.3 ± 1.2 | – | 10.9 ± 8.1 | – | significantly reduced the uptake | – | – | – |
| O=S([O-])[O-].[Na+].[Na+] [Sodium sulfite] | 77.7 ± 33.7 | 99.7 ± 5.5 | – | 92.9 ± 4.5 | -4 | – | – | – | – |
| O=C(O)c1ccc(O)c(O)c1 [3,4-dihydroxybenzoid acid, 3,4-dihydroxybenzoic acid] | 118.9 ± 20 | 78.5 ± 6.9 | – | 85.4 ± 4.4 | 0.86 | – | – | – | – |
| COc1cc(/C=C/C(=O)O)ccc1O [Ferulic acid] | 100.4 ± 16.6 | 91.0 ± 4.7 | – | 136.4 ± 20.7 | – | – | – | – | – |
| Cl.N[C@@H](CS)C(=O)O [Cysteine hydrochloride] | – | 90.0 ± 12.5 | – | – | – | – | – | – | – |
| O=S(O)S(=O)(=O)O [Sodium metabisulfite] | 78.8 ± 17.5 | 94.5 ± 8.2 | – | 118.9 ± 31.7 | -3.7 | – | – | – | – |
| O=S([O-])O.[Na+] [Sodium bisulfite] | 96.1 ± 30.4 | 110.4 ± 9.3 | – | 90.1 ± 24.5 | -1.2 | – | – | – | – |
| C[N+](C)(C)[C@@H](Cc1c[nH]c(=S)[nH]1)C(=O)[O-] [Ergothioneine] | 58.2 ± 23.6 | 112.5 ± 11.2 | – | 118.2 ± 30.6 | 0.3 | – | – | – | – |
| N[C@@H](Cc1c[nH]cn1)C(=O)O [Histidine] | 87.6 ± 10.6 | 92.4 ± 1.6 | – | 108.9 ± 4.0 | -3.32 | – | – | – | – |
| Oc1ccc2c(c1)OCO2 [Sesamol] | 121.3 ± 35.1 | 90.3 ± 3.7 | – | 103.1 ± 7.2 | 1.57 | – | – | – | – |
| CSCC[C@H](N)C(=O)O [Methionine] | 86.7 ± 24.5 | 94.8 ± 9.4 | – | 113.2 ± 15.2 | -1.87 | – | – | – | – |
| NCCC(=O)N[C@@H](Cc1cnc[nH]1)C(=O)O [Carnosine] | 82.6 ± 44 | 99.7 ± 11.6 | – | 119.3 ± 27.6 | -4 | – | – | – | – |
| O=C1O[C@H]([C@@H](O)CO)C(O)=C1O [Ascorbic acid] | 113.6 ± 43.3 | 92.7 ± 5.9 | – | – | -1.85 | – | – | – | – |
| COc1cc(/C=C/C(=O)CC(=O)/C=C/c2ccc(O)c(OC)c2)ccc1O [Curcumin, reference compound] | 0.0 ± 2.8 | 0.0 ± 1.8 | – | – | – | – | – | – | – |
| COC1=C(OC)C(=O)C(C/C=C(\C)CC/C=C(\C)CC/C=C(\C)CC/C=C(\C)CC/C=C(\C)CC/C=C(\C)CC/C=C(\C)CC/C=C(\C)CC/C=C(\C)CCC=C(C)C)=C(C)C1=O [Co-enzyme Q-10] | 90.3 ± 16.3 | 82.7 ± 16.2 | – | 116.1 ± 16.0 | 10 | – | – | – | – |
| C#Cc1cccc(Nc2ncnc3cc(OCCOC)c(OCCOC)cc23)c1 [Erlotinib, reference compound] | 63 ± 5 | 58.5 ± 3.9 | – | – | – | – | significantly inhibited | – | – |
| N[C@@H](CCC(=O)N[C@@H](CS)C(=O)NCC(=O)O)C(=O)O [Glutathione] | 79.8 ± 15.8 | 95.9 ± 2.2 | – | 107.9 ± 7.8 | – | – | – | – | – |
| Vitamin E | 67.9 ± 24 | 81.0 ± 12.6 | – | 83.5 ± 20.9 | – | – | – | found not to inhibit these transporters | – |
| NCC(=O)O [Glycine] | – | – | – | 125.6 ± 23.0 | – | – | – | – | – |
| O=C(O)C(O)C(O)C(=O)O (stereo not drawn) [Tartaric acid] | – | – | – | – | -0.76 | – | – | – | 101.1 ± 5.8 |
| O=P(O)(O)O [Phosphoric acid] | – | 83.0 ± 18.0 | – | – | – | – | – | – | – |
| CCCOC(=O)c1cc(O)c(O)c(O)c1 [Propyl gallate] | 149.1 ± 67.6 | 86.5 ± 2.6 | – | 79.3 ± 17.2 | – | – | – | – | – |
| O.O.O.O.O.O=S([O-])([O-])=S.[Na+].[Na+] [Sodium thiosulfate, pentahydrate] | 77.4 ± 20 | 114.2 ± 22.8 | – | 104.4 ± 2.4 | 0.048 | – | – | found not to inhibit these transporters | – |
| O=C1O[C@H]([C@H](O)CO)C(O)=C1O [Erythorbic acid] | 81.8 ± 31.4 | 88.2 ± 7.5 | – | – | -1.88 | – | – | – | – |
| Cc1cc(C(C)(C)C)c(O)c(C(C)(C)C)c1 [Butylated hydroxytoluene (BH), Butylated hydroxytoluene] | 98.1 ± 20.3 | 102.8 ± 9.2 | – | 137.1 ± 34.8 | – | – | – | – | – |
| O=C([O-])CN(CCN(CC(=O)[O-])CC(=O)O)CC(=O)O.[Na+].[Na+] [EDTA (edetate disodium), edetate disodium] | 69.3 ± 20.5 | 110.4 ± 24.6 | – | – | – | – | – | – | – |
| O=C(O)/C=C/c1ccc(O)c(O)c1 [Caffeic acid] | 133.8 ± 12 | 75.8 ± 3.7 | – | 119.8 ± 19.8 | – | – | – | – | – |
